Measured values taken from patent US9290490B2 (Merck Sharp & Dohme Corp., priority 2011, dated 2016).
Structures can show the parent of a compound that is named as a salt. Where two headings read alike, the source gives them in different places.

Target: recombinant human GST-Syk (Homo sapiens (Human), UniProt P43405)
Assay: Homogeneous Time-Resolved Fluorescence (HTRF) Assay for the Recombinant Human Syk Enzyme
Format: biochemical
Details: recombinant human GST-Syk 5 pM, ATP 25 μM
Experimental: Homogeneous Time-Resolved Fluorescence (HTRF) Assay for the Recombinant Human Syk Enzyme:
A recombinant GST-hSyk fusion protein was used to measure potency of compounds to inhibit human Syk activity. The recombinant human GST-Syk (Carna Biosciences #08-176) (5 pM final concentration) was incubated with various concentrations of the inhibitor diluted in DMSO (0.1% final concentration) for 10 minutes at room temperature in 15 mM Tris-HCl (pH 7.5), 0.01% tween 20, 2 mM DTT in 384 well plate format. To initiate the reaction the biotinylated substrate peptide (250 nM final concentration) that contains the phosphorylation site for Syk was added with magnesium (5 mM final concentration) and ATP (25 μM final concentration). Final volume of the reaction was 10 μL. Phosphorylation of the peptide was allowed to proceed for 45′ at room temperature. To quench the reaction and detect the phosphorylated product, 2 nM of a Europium-anti-phosphotyrosine antibody (Perkin Elmer #AD0161) and 70 nM SA-APC (Perkin-Elmer #CR130-100) were added together in 15 mM Tris pH 7.5, 40 mM EDTA, 0.01% Tween 20. Final volume of the quenching solution was 10 μL. The resulting HTRF signal was measured after 30 minutes on a EnVision (Perkin-Elmer) reader using a time-resolved fluorescence protocol. […] IC50 values are also provided for the following representative compounds: […]

[1] = 10-dose titration, read-out: rhSyk
[2] = read-out: rhSyk Activity (IC50)

Row | IC50 [1] | IC50 [2] | Compound
1 | < 0.5 nM | ≤ 100 nM | CC(O)(c1ncc(-c2cc(Nc3nccc(C(F)(F)F)n3)cc(C(F)F)c2)s1)[C@H]1CC[C@H](C(=O)O)CC1 (single isomer, unassigned) [Example 18, trans-4-((1R or 1S)-{5-[3-(difluoromethyl)-5-{[4-(trifluoromethyl)pyrimidin-2-yl]amino}phenyl]-1,3-thiazol-2-yl}-1-hydroxyethyl)cyclohexanecarboxylic acid]
2 |  | ≤ 100 nM | Cc1cc(Nc2nccc(C(F)(F)F)n2)cc(-c2cncs2)c1 [Intermediate 21, N-[3-methyl-5-(1,3-thiazol-5-yl)phenyl]-4-(trifluoromethyl)pyrimidin-2-amine]
3 |  | 100 to 1000 nM | Cc1cc(Nc2nccc(C)n2)cc(-c2cnc(CC3(O)CCC(C(=O)OC(C)(C)C)CC3)s2)c1 (single isomer, unassigned) [Example 5, Step 3 (cis isomer), tert-butyl cis-4-hydroxy-4-[(5-{3-methyl-5-[(4-methylpyrimidin-2-yl)amino]phenyl}-1,3-thiazol-2-yl)methyl]cyclohexanecarboxylate]
4 |  | ≤ 100 nM | Cc1cc(Nc2nccc(C(F)(F)F)n2)cc(-c2cnc(C(C)(O)C3CCC(C)(C(=O)O)CC3)s2)c1 (stereo not drawn) [Example 3-5]
5 | 1 nM | ≤ 100 nM | Cc1cc(Nc2nccc(C)n2)cc(-c2cnc(C(C)(O)[C@H]3CC[C@H](C(=O)O)CC3)s2)c1 (single isomer, unassigned) [Example 2-52, trans-4-[(1R or S)-hydroxy-1-(5-{3-methyl-5-[(4-methylpyrimidin-2-yl)amino]phenyl}-1,3-thiazol-2-yl)ethyl]cyclohexanecarboxylic acid]
6 | < 0.5 nM | ≤ 100 nM | C[C@](O)(c1ncc(-c2cc(CO)cc(Nc3nccc(C(F)(F)F)n3)c2)s1)[C@H]1CC[C@H](C(=O)O)CC1 (single isomer, unassigned) [Example 15, trans-4-[(1R or 1S)-1-hydroxy-1-{5-[3-(hydroxymethyl)-5-{[4-(trifluoromethyl)pyrimidin-2-yl]amino}phenyl]-1,3-thiazol-2-yl}ethyl]cyclohexanecarboxylic acid]
7 |  | ≤ 100 nM | Cc1cc(Nc2nccc(C(F)(F)F)n2)cc(-c2cnc(C(C)(O)C3CCC(C)(C(=O)O)CC3)s2)c1 (single isomer, unassigned) [Example 3 (isomer 3), 4-{1-hydroxy-1-[5-(3-methyl-5-{[4-(trifluoromethyl)pyrimidin-2-yl]amino}phenyl)-1,3-thiazol-2-yl]ethyl}-1-methylcyclohexanecarboxylic acid]
8 | 93 nM | ≤ 100 nM | CCC(=O)O[C@@H]1CCC(C(C)(O)c2ncc(-c3cc(C)cc(Nc4nccc(C)n4)c3)s2)C[C@H]1C (stereo partly drawn) [Example 2-16]
9 |  | ≤ 100 nM | Cc1cc(Nc2nccc(C(F)(F)F)n2)cc(-c2cnc(C(C)(O)C3CCC(C(=O)O)C3)s2)c1 (stereo not drawn) [Example 3-4]
10 |  | ≤ 100 nM | Cc1cc(Nc2nccc(C(F)(F)F)n2)cc(-c2cnc(C(O)[C@H]3CC[C@@H](C(N)=O)CC3)s2)c1 [Example 7 (cis isomer), cis-4-{hydroxy[5-(3-methyl-5-{[4-(trifluoromethyl)pyrimidin-2-yl]amino}phenyl)-1,3-thiazol-2-yl]methyl}cyclohexanecarboxamide]
11 |  | ≤ 100 nM | Cc1cc(Nc2nccc(C(F)(F)F)n2)cc(-c2cnc(C(O)(CF)[C@H]3CC[C@H](C(=O)O)CC3)s2)c1 (stereo partly drawn) [Example 9, trans-4-{2-fluoro-1-hydroxy-1-[5-(3-methyl-5-{[4-(trifluoromethyl)pyrimidin-2-yl]amino}phenyl)-1,3-thiazol-2-yl]ethyl}cyclohexanecarboxylic acid]
12 | 850 nM | 100 to 1000 nM | COC(=O)[C@@H]1CC(C(=O)c2ncc(-c3cc(C)cc(Nc4nccc(C(F)(F)F)n4)c3)s2)[C@H](O)C1(C)C (stereo partly drawn) [Example 14, methyl (1,3-cis, 1,4-trans)-3-hydroxy-2,2-dimethyl-4-{[5-(3-methyl-5-{[4-(trifluoromethyl)-pyrimidin-2-yl]amino}phenyl)-1,3-thiazol-2-yl]carbonyl}cyclopentanecarboxylate]
13 | 15 nM | ≤ 100 nM | Cc1cc(Nc2ncc(F)c(C)n2)cc(-c2cnc(C(O)(CO)C3CCC(C(=O)O)CC3)s2)c1 (stereo not drawn) [Example 2-109]
14 |  | ≤ 100 nM | CCCCOC(=O)[C@H]1CC[C@H](C(C)(O)c2ncc(-c3cc(C)cc(Nc4nccc(C(F)(F)F)n4)c3)s2)CC1 (relative stereo) [Example 1, Step 1, butyl trans-4-{1-hydroxy-1-[5-(3-methyl-5-{[4-(trifluoromethyl)pyrimidin-2-yl]amino}-phenyl)-1,3-thiazol-2-yl]ethyl}cyclohexanecarboxylate]
15 | 2 nM | ≤ 100 nM | Cc1cc(Nc2nccc(C)n2)cc(-c2cnc(C(O)(C3CCC(C(=O)O)CC3)C(F)(F)F)s2)c1 (stereo not drawn) [Example 2-101]
16 |  | 100 to 1000 nM | CCCCOC(=O)[C@H]1CC[C@H](C(C)(O)c2ncc(-c3cc(C)cc(Nc4nccc(C(F)F)n4)c3)s2)CC1 (single isomer, unassigned)
17 |  | ≤ 100 nM | Cc1cc(Nc2nccc(C(F)F)n2)cc(-c2cnc(C(C)(O)[C@H]3CC[C@H](C(=O)O)CC3)s2)c1Br (stereo partly drawn) [Example 8-1]
18 | 13 nM | ≤ 100 nM | Cc1cc(Nc2nccc(C)n2)cc(-c2cnc(C(C)(O)C3CCC(C(=O)O)CC3)s2)c1 (stereo not drawn) [Example 2-53]
19 |  | ≤ 100 nM | Cc1cc(Nc2nccc(C(F)(F)F)n2)cc(-c2cnc(C(C)(O)C3CCC(C)(C(=O)O)CC3)s2)c1 (stereo not drawn) [Example 3-7]
20 |  | ≤ 100 nM | Cc1cc(Nc2nccc(C(F)(F)F)n2)cc(-c2cnc([C@@](O)(C3CC3)[C@H]3CC[C@H](C(=O)O)CC3)s2)c1 (single isomer, unassigned) [Example 2 (from Intermediate 28 faster eluting enantiomer), trans-4-{(R or S)-cyclopropyl(hydroxy)[5-(3-methyl-5-{[4-(trifluoromethyl)pyrimidin-2-yl]amino}phenyl)-1,3-thiazol-2-yl]methyl}cyclohexanecarboxylic acid]
21 |  | ≤ 100 nM | Cc1cc(Nc2nccc(C)n2)cc(-c2cnc(C[C@H]3CC[C@H](C(=O)O)CC3)s2)c1 (single isomer, unassigned) [Example 13 (trans, slower eluting isomer), trans-4-[(5-{3-methyl-5-[(4-methylpyrimidin-2-yl)amino]-phenyl}-1,3-thiazol-2-yl)methyl]cyclohexanecarboxylic acid]
22 | 5 nM | ≤ 100 nM | Cc1cc(Nc2ncc(Cl)c(C)n2)cc(-c2cnc(C(C)(O)C3CCC(C(=O)O)CC3)s2)c1 (stereo not drawn) [Example 2-60]
23 | 2 nM | ≤ 100 nM | Cc1cc(Nc2nccc(C(F)(F)F)n2)cc(-c2cnc(C(C)(O)C3CCC(C(=O)O)C3)s2)c1 (stereo not drawn) [Example 3-2]
24 |  | ≤ 100 nM | Cc1cc(Nc2nccc(C(F)(F)F)n2)cc(-c2cnc(C(C)(O)C3CCC(C)(C(=O)O)CC3)s2)c1 (stereo not drawn) [Example 3-6]
25 | < 0.5 nM | ≤ 100 nM | Cc1cc(Nc2nccc(C(F)F)n2)cc(-c2cnc(C(C)(O)[C@H]3CC[C@H](C(=O)O)CC3)s2)c1 (single isomer, unassigned) [Example 2-77, trans-4-{(1R or S)-[5-(3-{[4-(difluoromethyl)pyrimidin-2-yl]amino}-5-methylphenyl)-1,3-thiazol-2-yl]-1-hydroxyethyl}cyclohexanecarboxylic acid]
26 |  | 100 to 1000 nM | Cc1cc(Nc2nccc(C(F)(F)F)n2)cc(-c2cnc(C(=O)C3CCC4(CC3)OCCO4)s2)c1 [Example 1-20, 1,4-dioxaspiro[4.5]dec-8-yl[5-(3-methyl-5-{[4-(trifluoromethyl)pyrimidin-2-yl]amino}phenyl)-1,3-thiazol-2-yl]methanone]
27 |  | ≤ 100 nM | Cc1cc(Nc2nccc(C)n2)cc(-c2cnc(C[C@]3(O)CC[C@@H](C(=O)O)CC3)s2)c1 [Example 5 (cis isomer), cis-4-hydroxy-4-[(5-{3-methyl-5-[(4-methylpyrimidin-2-yl)amino]phenyl}-1,3-thiazol-2-yl)methyl]cyclohexanecarboxylic acid]
28 | 301 nM | 100 to 1000 nM | CCOC(=O)C1CCC(Cc2ncc(-c3cc(C)cc(Nc4nccc(C)n4)c3)s2)CC1 (stereo not drawn) [Example 13, step 2, ethyl 4-[(5-{3-methyl-5-[(4-methylpyrimidin-2-yl)amino]phenyl}-1,3-thiazol-2-yl)methyl]cyclohexanecarboxylate]
29 |  | ≤ 100 nM | Cc1cc(Nc2nccc(C)n2)cc(-c2cnc(C[C@]3(O)CC[C@H](C(=O)O)CC3)s2)c1 [5 (trans isomer), trans-4-hydroxy-4-[(5-{3-methyl-5-[(4-methylpyrimidin-2-yl)amino]phenyl}-1,3-thiazol-2-yl)methyl]cyclohexanecarboxylic acid]

Row | Compound | IC50 [1] | IC50 [2]
30 | Cc1cc(Nc2nccc(C(F)(F)F)n2)cc(-c2cnc(C(C)(O)[C@H]3CC[C@H](c4nn[nH]n4)CC3)s2)c1 (single isomer, unassigned) [Example 6 (slower eluting enantiomer), 2-{[3-(2-{1-hydroxy-1-[trans-4-(2H-tetrazol-5-yl)cyclohexyl]ethyl}-1,3-thiazol-5-yl)-5-methylphenyl]amino}-4-(trifluoromethyl)pyrimidin-1-ium trifluoroacetate] |  | ≤ 100 nM
